Assay results reported in patent publication US20260327242A1, “Platform and Scaffold for FAP Targeting Agents” (Erasmus University Medical Center Rotterdam, priority 2022, published 2026).

What was measured:
human FAP (hFAP) = target: T1, human FAP (hFAP) (Homo sapiens, UniProt Q12884); assay: In vitro inhibition assay on human FAP (Z-GP-AMC substrate); format: biochemical; settings: 20 μM Z-GP-AMC, 20 nM FAP, pH 7.4, room temperature
T1 sequence (Q12884 26-760 limits assumed): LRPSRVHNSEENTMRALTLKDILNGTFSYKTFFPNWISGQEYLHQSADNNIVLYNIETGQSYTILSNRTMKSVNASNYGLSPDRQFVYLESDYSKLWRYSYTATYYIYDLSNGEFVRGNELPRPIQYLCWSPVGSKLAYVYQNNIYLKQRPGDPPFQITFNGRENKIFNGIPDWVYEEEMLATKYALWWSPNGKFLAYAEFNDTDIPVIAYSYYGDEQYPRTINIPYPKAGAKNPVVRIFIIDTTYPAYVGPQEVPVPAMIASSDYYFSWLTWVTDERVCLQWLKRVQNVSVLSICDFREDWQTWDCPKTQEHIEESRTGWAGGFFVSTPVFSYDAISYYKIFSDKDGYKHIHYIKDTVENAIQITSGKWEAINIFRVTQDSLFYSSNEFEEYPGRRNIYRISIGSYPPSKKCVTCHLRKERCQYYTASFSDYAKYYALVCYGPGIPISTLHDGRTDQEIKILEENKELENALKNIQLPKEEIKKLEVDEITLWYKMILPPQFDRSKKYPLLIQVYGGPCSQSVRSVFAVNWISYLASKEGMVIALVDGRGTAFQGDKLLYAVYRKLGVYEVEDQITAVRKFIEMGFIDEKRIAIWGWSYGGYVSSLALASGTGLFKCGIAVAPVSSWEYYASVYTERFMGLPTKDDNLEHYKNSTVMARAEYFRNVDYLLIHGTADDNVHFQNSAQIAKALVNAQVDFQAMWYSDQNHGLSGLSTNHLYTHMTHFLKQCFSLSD
Protocol: (§1) Enzymatic activity of human FAP (hFAP) and mouse FAP (mFAP) on the Z-GP-AMC substrate was measured at room temperature on a Hidex microplate reader by monitoring the fluorescence at an excitation wavelength of 360 nm and an emission wavelength of 465 nm. The reaction mixture contained 20 μM substrate, 20 nM FAP, assay buffer (50 mM Tris, 100 mM NaCl, 1 mM EDTA, pH 7.4) and tested compound (serial dilution from 10-6 to 10^−12) in a total volume of 50 μL.

mouse FAP (mFAP) = target: T2, mouse FAP (mFAP) (Mus musculus, UniProt P97321); assay: In vitro inhibition assay on mouse FAP (Z-GP-AMC substrate); format: biochemical; settings: 20 μM Z-GP-AMC, 20 nM FAP, pH 7.4, room temperature
T2 sequence (P97321 26-761 limits assumed): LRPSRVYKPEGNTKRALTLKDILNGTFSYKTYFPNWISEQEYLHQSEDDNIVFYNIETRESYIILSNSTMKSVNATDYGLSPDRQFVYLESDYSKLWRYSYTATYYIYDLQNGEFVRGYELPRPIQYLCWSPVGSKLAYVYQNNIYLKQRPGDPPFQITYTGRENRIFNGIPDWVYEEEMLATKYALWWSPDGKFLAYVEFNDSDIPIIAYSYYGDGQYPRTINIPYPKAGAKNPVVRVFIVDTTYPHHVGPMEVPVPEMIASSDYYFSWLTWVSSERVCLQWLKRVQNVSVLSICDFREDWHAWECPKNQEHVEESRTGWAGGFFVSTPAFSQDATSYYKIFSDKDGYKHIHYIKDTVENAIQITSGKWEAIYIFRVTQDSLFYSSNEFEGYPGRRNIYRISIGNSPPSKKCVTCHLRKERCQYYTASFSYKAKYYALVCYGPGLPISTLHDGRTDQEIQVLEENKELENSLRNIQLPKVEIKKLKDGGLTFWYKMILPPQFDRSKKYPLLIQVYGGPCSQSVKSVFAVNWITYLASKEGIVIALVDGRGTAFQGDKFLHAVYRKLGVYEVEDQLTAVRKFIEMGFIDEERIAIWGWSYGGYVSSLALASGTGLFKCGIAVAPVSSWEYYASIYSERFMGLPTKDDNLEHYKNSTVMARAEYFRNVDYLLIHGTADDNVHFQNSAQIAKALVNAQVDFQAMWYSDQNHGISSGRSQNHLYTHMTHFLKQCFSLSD
Protocol: as §1
Results with FAPI-46 obtained in the same assay is included for comparison.

U-87 cells = assay: Cytotoxicity assay in FAP+ U-87 cells (resazurin); format: cell-based
Protocol: In 96-well plates, U-87 cells (3×10^3) were seeded in each well and incubated at 37° C. and 5% CO2 for 24 h. The medium was removed and the wells were washed once with PBS. The cytotoxic drug (positive control) or the eFAP conjugate containing the drug were prepared at various concentrations (i.e., 1, 10, 100, 1000 nM) in DMEM culture medium, supplemented with 2 mM L-glutamine, 10% FBS, 50 units/mL penicillin, and 50 μg/mL streptomycin. Medium was used as a negative control. Cells were incubated with 100 μL of the tested compounds for 1, 24, 48, and 72 h. After incubation, medium was removed and each well was washed once with PBS. Next, 100 μL of 10% resazurin solution in culture medium was added to each well and incubated for 2.5 h. Fluorescence measurements were carried out using a microplate reader at 544 nm excitation and 590 nm emission.

| SMILES | IC50 (human FAP (hFAP)) | IC50 (mouse FAP (mFAP)) | viability at 1 µM (U-87 cells; Homo sapiens, U-87 MG, read-out: cell viability) | cell viability (U-87 cells; FAP+ U-87 cells, single dose of eFAP-18 (1 μM) compared with the parent drug DM1) |
| --- | --- | --- | --- | --- |
| COc1cc2cc(c1Cl)N(C)C(=O)CC(OC(=O)C(C)N(C)C(=O)CCSSCCC(=O)NCCCOc1cccc3c(C(=O)NCC(=O)N4CC(F)(F)CC4C#N)ccnc13)C1(C)OC1C(C)C1CC(O)(NC(=O)O1)C(OC)C=CC=C(C)C2 [eFAP-18, (1^4S,1^6S,3^2S,3^3S,2R,4S,10E,12E,14R)-8^6-chloro-1^4-hydroxy-8^5,14-dimethoxy-3^3,2,7,10-tetramethyl-1^2,6-dioxo-7-aza-1(6,4)-oxazinana-3(2,3)-oxirana-8(1,3)-benzenacyclotetradecaphane-10,12-dien-4-yl N-(3-((3-((3-((4-((2-((S)-2-cyano-4,4-difluoropyrrolidin-1-yl)-2-oxoethyl)carbamoyl)quinolin-8-yl)oxy)propyl)amino)-3-oxopropyl)disulfaneyl)propanoyl)-N-methyl-L-alaninate] | 2.6 ± 0.8 nM | 2 ± 0.1 nM | ~25% |  |
| CC1(C)C(=CC=C2CCCC(C=CC3=[N+](CCCCS(=O)(=O)[O-])c4ccc(S(=O)(=O)O)cc4C3(C)C)=C2Oc2ccc(S(=O)(=O)O)cc2)N(CCCCCC(=O)NCC(O)CC(=O)NCC(O)CC(=O)NCCCOc2cccc3c(C(=O)NCC(=O)N4CC(F)(F)C[C@H]4C#N)ccnc23)c2ccc(S(=O)(=O)O)cc21 (stereo partly drawn) [eFAP-24, 2-((E)-2-((E)-3-(2-((E)-1-(6-((4-((4-((3-((4-((2-((S)-2-cyano-4,4-difluoropyrrolidin-1-yl)-2-oxoethyl)carbamoyl)quinolin-8-yl)oxy)propyl)amino)-2-hydroxy-4-oxobutyl)amino)-2-hydroxy-4-oxobutyl)amino)-6-oxohexyl)-3,3-dimethyl-5-sulfonatoindolin-2-ylidene)ethylidene)-2-(4-sulfonatophenoxy)cyclohex-1-en-1-yl)vinyl)-3,3-dimethyl-1-(4-sulfonatobutyl)-3H-indol-1-ium-5-sulfonate] | 3.04 ± 0.18 nM | 2.96 ± 0.15 nM |  |  |
| COc1cc2cc(c1Cl)N(C)C(=O)C[C@H](OC(=O)[C@H](C)N(C)C(=O)CCS)[C@]1(C)O[C@H]1[C@H](C)[C@@H]1C[C@@](O)(NC(=O)O1)[C@H](OC)/C=C/C=C(\C)C2 [DM1, Mertansine, reference compound] |  |  |  | 40% |
| N#C[C@@H]1CC(F)(F)CN1C(=O)CNC(=O)c1ccnc2c(OCCCNC(=O)C3CCC(CNC(=O)CN4CCN(CC(=O)O)CCN(CC(=O)O)CCN(CC(=O)O)CC4)CC3)cccc12 (stereo partly drawn) [eFAP-9, 2,2′,2″-(10-(2-(((4-((3-((4-((2-((S)-2-Cyano-4,4-difluoropyrrolidin-1-yl)-2-oxoethyl)carbamoyl)quinolin-8-yl)oxy)propyl)carbamoyl)cyclohexyl)methyl)amino)-2-oxoethyl)-1,4,7,10-tetraazacyclododecane-1,4,7-triyl)triacetic acid] | 2.9 ± 0.6 nM | 2.3 ± 0.3 nM |  |  |
| N#C[C@@H]1CC(F)(F)CN1C(=O)CNC(=O)c1ccnc2c(OCCCNC(=O)CCC(C(=O)O)N3CCN(CC(=O)O)CCN(CC(=O)O)CCN(CC(=O)O)CC3)cccc12 (stereo partly drawn) [eFAP-8, 2,2′,2″-(10-(1-Carboxy-4-((3-((4-((2-((S)-2-cyano-4,4-difluoropyrrolidin-1-yl)-2-oxoethyl)carbamoyl)quinolin-8-yl)oxy)propyl)amino)-4-oxobutyl)-1,4,7,10-tetraazacyclododecane-1,4,7-triyl)triacetic acid] | 1.5 ± 0.2 nM | 1.1 ± 0.4 nM |  |  |
